# Data as given in patent US20110028554A1, “PHARMACEUTICAL COMPOSITIONS COMPRISING DIIODOTHYRONINE AND THEIR THERAPEUTIC USE” (UNIVERSITE JOSEPH FOURIER, priority 2007, published 2011).
# “Also recorded” adds a separate entry of the source.
# Assays:
# [1] = Body weight and food intake of Zucker rats; format: in vivo; conditions: Zucker (Fa/Fa) rats, 30 days, FIG. 8 legend high dosage 25 μg/100 g BW
# Procedure: (§1) Adult male rat bred in the animal room facilities of Laboratory of Fundamental and Applied. Bioenergetics (Wistar strain) or purchased from Charles-River Laboratories, Domaine des oncins, L'ARBRESLE France [(genetically obese normoglycemic (Zucker or Fa/Fa) or diabetic (ZDF)] were caged individually in stainless steel hanging cages and maintained in a 22° C., 50±10% relative humidity and 12 h:12 h light:dark environment. All animals were fed ad libitum with a standard rat chow (Safe A04, Villemoisson, France) and tap water. Body mass and food intake were recorded twice/thrice a week and fresh food was provided, at the same time to ensure minimal disturbance to the animals' food, behavior.
# Eight-week old rats (300 g±10 g) were anesthetized by simultaneous intraperitoneal injection of diazepam 4 mg/kg and ketamine 100 mg/kg. In order to maintain body temperature during the surgery (10 min), animals were placed on a warm blanket. After interscapular shaving, a small incision of 0.5 cm of the skin allows the subcutaneous implantation of a small pellet (containing rT3 or 3′,3-T2) with a 10-gauge precision trochar. The pellets, manufactured by Innovative Research of America (Sarasota, Fla., USA) are constituted of a biodegradable matrix that effectively and continuously release the active product in the animal. […]
# [2] = Body composition (adipose tissues, skeletal muscles, brown adipose tissue) of Wistar rats; format: in vivo
# Source text: (§2) At the end of the experimental period, animals were sacrificed by decapitation, in order to avoid the well-known effects of general anesthetics on mitochondrial metabolism. Blood, samples were immediately collected and plasma was frozen for subsequent determination of serum metabolites and hormones. Liver, muscles and fat depots were quickly excised and weighed. Liver median lobe was rapidly freeze-clamped. Muscles (plantaris, soleus and gastrocnemius) were frozen in isopentane precooled in liquid nitrogen. Mesenteric fat consisted, of adipose tissue surrounding the gastro-intestinal tract from the gastro-oesophageal sphincter to the end of the rectum with special care taken in distinguishing and removing the pancreas. Retroperitoneal fat pad was taken as the distinct depot behind each kidney along the lumbar muscles. Epididymal fat consisted, of adipose tissue on top of the epididymis. For subcutaneous depot measurement, a rectangular piece of skin was taken on the right side of each animal from the median line of the abdomen between the spine and the right hip to the first rib. Interscapular brown adipose tissue was removed and dissected free from adjacent muscles and white adipose tissue. The heart ventricles, the right kidney and the spleen were also excised, weighed and frozen.
# [3] = Growth rate (body weight) of Wistar rats with subcutaneous continuous-release pellet; format: in vivo
# Procedure: as §1
# (§3) Eight-week old rats (300 g±10 g) were anesthetized by simultaneous intraperitoneal injection of diazepam 4 mg/kg and ketamine 100 mg/kg. In order to maintain body temperature during the surgery (10 min), animals were placed on a warm blanket. After interscapular shaving, a small incision of 0.5 cm of the skin allows the subcutaneous implantation of a small pellet (containing rT3 or 3′,3-T2) with a 10-gauge precision trochar. The pellets, manufactured by Innovative Research of America (Sarasota, Fla., USA) are constituted of a biodegradable matrix that effectively and continuously release the active product in the animal.
# (§4) 3-5 diiodothyronine (3-5 T2) or 3-3′diiodothyronine (3-3′ T2) were used at different doses (5, 0.5, or 0.1 mg/pellet) were implanted in order to provide a continuous and constant drug delivery over 60 days (which represents 25 μg, 2.5 μg or 0.5 μg/day/100 g BW).
# [4] = Body composition of genetically obese Zucker rats; format: in vivo, Zucker (Fa/Fa) rats; conditions: FIG. 9, high dosage 25 μg/100 g BW
# Source text: as §2
# [5] = Food intake of Wistar rats; format: in vivo
# Procedure: as §1, §3, §4
# [6] = Blood parameters (glucose, HbA1c, insulin, cholesterol, triglycerides) in ZDF rats; format: in vivo, Zucker Diabetic fatty (ZDF) rats; conditions: high dosage 25 μg/100 g BW
# Procedure: Rats were genetically obese normoglycemic (Zucker or Fa/Fa), 10-11 week-old diabetic rats (ZDF) or genetic non-overweight diabetic (type 2 diabetes) rats (Goto-Kakizaki (GK) model).
# The day of the study, after a fasted period overnight (18 h), blood samplings will be taken in awake rats from the tail vein.
# The following biochemical parameters were analyzed: glycemia, insulinemia, HbA1c, TG and Cholesterol.
# Insulin levels were determined with commercial kits (Linco Research).
# Glucose and 3-hydroxybutyrate (3-HB) were measured, enzymatically and non esterified fatty acid (NEFA) by colorimetric assay (Wako Chemicals).
# Triglycerides and cholesterol were measured by classical routine automate apparatus.
smiles,measurement,setting,value
"N[C@@H](Cc1cc(I)c(Oc2ccc(O)cc2)c(I)c1)C(=O)O [3,5-T2, 3,5-diiodothyronine]",Food intake vs placebo,[1],significantly lower as compared to placebo
same,Animal growth (body weight) vs placebo,"[1]; text says low 3,5-T2 group",no significant growth
same,Brown adipose tissue weight vs placebo,[2]; high dosage 25 μg/100 g BW,significantly increased
same,"Fat masses, all localizations (retroperitoneal, epididymal, mesenteric, subcutaneous) vs placebo",[2]; high dosage 25 μg/100 g BW,significantly lower
same,Muscle mass / lean body mass vs placebo,[2]; high dosage 25 μg/100 g BW,not affected at all
same,Fat mass vs placebo,[2]; low dosage 2.5 μg/100 g BW,significantly decreased
same,Lean body mass vs placebo,[2]; low dosage 2.5 μg/100 g BW,not affected
same,Growth rate (body weight gain) vs placebo,[3]; high dosage 25 μg/100 g BW,did not show similar weight gain; also recorded: a biphasic curve was observed with a weight gain between the 10th and the 15th day
same,Growth rate (body weight gain) vs placebo,[3]; low dosage 2.5 μg/100 g BW,the body mass did not change
same,"Absolute values of fat deposit, all localizations, vs placebo",[4],significantly lower
same,Brown adipose tissue vs placebo,[4],significantly increased
same,Muscle mass vs placebo,[4],not affected
same,Food intake vs placebo,[5]; high dosage 25 μg/100 g BW,a clear increase was observed
same,Food intake vs placebo,[5]; low dosage 2.5 μg/100 g BW,almost not affect
same,Plasmatic cholesterol at the end of the treatment vs placebo,[6],significantly lower
same,Plasmatic triglycerides at the end of the treatment vs placebo,[6],not different between the two groups
same,Glycated hemoglobin (HbA1c),[6]; 4 weeks,significant decrease
same,Plasmatic insulin concentration,[6]; 4 weeks,maintenance of insulin concentration at a high level; also recorded: increasing plasmatic insulin concentration
same,Plasmatic glucose concentration,[6]; from week 1 over 4 weeks,dramatic decrease; also recorded: decreasing glucose concentration
